Calls of active or inactive are those of the source.
Key:
Mu-type opioid receptor = Mu-type opioid receptor (Homo sapiens, UniProt P35372); assay type: functional, cell-based;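 note: U2OS cells with beta-arrestin recruitment to OPRM1 by beta-gal complementation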
[1] = molecular target: 5-hydroxytryptamine receptor 2A (Mus musculus, UniProt P35363); assay type: functional, cell-based;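 note: CHO-K1 cells with tagged receptor and beta-arrestin; agonist potency measured as compound-induced activation of the receptor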
[2] = molecular target: T1, Long-chain-fatty-acid--AMP ligase FadD28 (Mycobacterium tuberculosis, UniProt P9WQ59); test: Fluorescence polarization aasay to screen for inhibitors that compete for the binding of FadD28 to a bisubstrate Measured in Biochemical System Using Plate Reader - 2147-01_Inhibitor_Dose_CherryPick_Activity.; assay type: functional, Mycobacterium tuberculosis H37Rv
T1 sequence (P9WQ59 whole entry): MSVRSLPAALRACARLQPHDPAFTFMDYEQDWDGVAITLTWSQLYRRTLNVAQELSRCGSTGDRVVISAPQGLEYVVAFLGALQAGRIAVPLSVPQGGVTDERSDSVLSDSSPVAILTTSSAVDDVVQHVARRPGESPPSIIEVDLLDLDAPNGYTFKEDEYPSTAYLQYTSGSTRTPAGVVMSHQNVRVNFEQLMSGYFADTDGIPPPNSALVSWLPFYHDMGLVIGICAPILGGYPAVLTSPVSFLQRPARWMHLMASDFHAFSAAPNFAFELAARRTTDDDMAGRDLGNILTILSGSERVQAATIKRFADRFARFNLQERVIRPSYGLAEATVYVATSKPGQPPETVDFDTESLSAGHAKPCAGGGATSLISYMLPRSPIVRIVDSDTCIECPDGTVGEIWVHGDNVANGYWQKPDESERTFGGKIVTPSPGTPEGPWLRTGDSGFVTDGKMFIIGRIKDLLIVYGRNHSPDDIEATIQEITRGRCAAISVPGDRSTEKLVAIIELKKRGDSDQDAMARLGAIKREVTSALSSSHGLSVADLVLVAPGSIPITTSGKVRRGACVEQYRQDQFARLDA

cells = assay type: functional, cell-based
[3] = molecular target: T2, Nuclear receptor subfamily 0 group B member 1 (Homo sapiens, UniProt P51843); assay type: functional, cell-based;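 note: HEK293T cells transfected with SF-1 and DAX-1 plus StAR promoter luciferase reporter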
T2 sequence (P51843 whole entry): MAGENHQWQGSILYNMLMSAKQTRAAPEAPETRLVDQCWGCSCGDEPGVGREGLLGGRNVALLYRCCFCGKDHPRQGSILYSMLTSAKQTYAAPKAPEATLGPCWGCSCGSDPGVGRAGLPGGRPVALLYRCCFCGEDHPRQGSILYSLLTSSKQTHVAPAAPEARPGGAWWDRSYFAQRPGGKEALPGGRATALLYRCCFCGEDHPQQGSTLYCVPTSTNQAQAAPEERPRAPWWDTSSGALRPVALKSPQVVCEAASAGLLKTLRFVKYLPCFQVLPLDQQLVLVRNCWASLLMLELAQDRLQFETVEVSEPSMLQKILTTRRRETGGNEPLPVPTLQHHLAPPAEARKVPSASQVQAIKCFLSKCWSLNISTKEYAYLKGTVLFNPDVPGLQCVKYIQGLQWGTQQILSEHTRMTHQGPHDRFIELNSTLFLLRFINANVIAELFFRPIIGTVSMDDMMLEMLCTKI

[4] = molecular target: T3, RNA-binding protein pos-1 (Caenorhabditis elegans, UniProt G5EF15); test: disruptors of C. elegans POS-1 RNA interaction – biochemical, fluorescence polarization, dose response (AID 1964);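 note: purified POS-1 fused to maltose binding protein made in E. coli; potency of compounds blocking POS-1 binding to fluorescent RNA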
T3 sequence (G5EF15 whole entry): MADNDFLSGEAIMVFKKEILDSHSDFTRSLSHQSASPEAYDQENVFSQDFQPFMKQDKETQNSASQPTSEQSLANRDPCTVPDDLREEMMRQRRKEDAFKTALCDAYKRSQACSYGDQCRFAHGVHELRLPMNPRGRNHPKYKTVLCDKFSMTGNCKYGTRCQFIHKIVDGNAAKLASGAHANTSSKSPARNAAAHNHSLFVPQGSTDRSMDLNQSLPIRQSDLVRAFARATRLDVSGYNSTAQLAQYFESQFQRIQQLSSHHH

[5] = molecular target: T4, Zinc finger protein mex-5 (Caenorhabditis elegans, UniProt Q9XUB2); test: potency of MEX-5 RNA-binding blockers – biochemical, C. elegans, fluorescence polarization, dose response (AID 1960)
T4 sequence (Q9XUB2 whole entry): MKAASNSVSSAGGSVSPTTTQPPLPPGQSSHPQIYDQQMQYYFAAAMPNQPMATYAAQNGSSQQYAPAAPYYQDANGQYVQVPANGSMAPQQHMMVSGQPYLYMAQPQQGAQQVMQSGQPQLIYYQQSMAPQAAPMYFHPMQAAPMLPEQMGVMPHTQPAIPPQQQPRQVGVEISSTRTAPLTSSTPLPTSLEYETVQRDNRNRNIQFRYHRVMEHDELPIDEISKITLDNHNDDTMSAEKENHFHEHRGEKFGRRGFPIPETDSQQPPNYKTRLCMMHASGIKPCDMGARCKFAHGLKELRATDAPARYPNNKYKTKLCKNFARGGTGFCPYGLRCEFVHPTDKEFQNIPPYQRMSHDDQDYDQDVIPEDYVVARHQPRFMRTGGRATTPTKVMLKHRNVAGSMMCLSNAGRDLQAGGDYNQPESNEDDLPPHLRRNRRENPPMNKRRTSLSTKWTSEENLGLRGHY

Large T antigen = Large T antigen (Simian virus 40, UniProt P03070); assay type: functional, Betapolyomavirus macacae;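 note: Confirmatory-stage PubChem screen for compounds that inhibit SV40 T antigen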
[6] = molecular target: Induced myeloid leukemia cell differentiation protein Mcl-1 (Homo sapiens, UniProt Q07820); assay type: functional
[7] = molecular target: DNA (cytosine-5)-methyltransferase 1 (Homo sapiens, UniProt P26358); test: inhibition of DNA methylation by DNMT1 – biochemical, fluorescent molecular beacon, confirmation (AID 602386); assay type: functional
[8] = molecular target: T5, Small ubiquitin-related modifier 1 (Homo sapiens, UniProt P63165); test: SUMO1 protein interaction blockers, potency – biochemical, fluorescence polarization, uHTS hits, dose response (AID 624382); assay type: functional; details: read-out: IC50_Mean
[9] = molecular target: T5, Small ubiquitin-related modifier 1; test: SUMO1 protein-protein binding blockers, potency – biochemical, FRET, dose response (AID 624383); assay type: functional; details: read-out: IC50_Mean
[10] = molecular target: T6, Histone-lysine N-methyltransferase NSD2 (Homo sapiens, UniProt O96028); assay type: biochemical
T6 sequence (O96028 whole entry): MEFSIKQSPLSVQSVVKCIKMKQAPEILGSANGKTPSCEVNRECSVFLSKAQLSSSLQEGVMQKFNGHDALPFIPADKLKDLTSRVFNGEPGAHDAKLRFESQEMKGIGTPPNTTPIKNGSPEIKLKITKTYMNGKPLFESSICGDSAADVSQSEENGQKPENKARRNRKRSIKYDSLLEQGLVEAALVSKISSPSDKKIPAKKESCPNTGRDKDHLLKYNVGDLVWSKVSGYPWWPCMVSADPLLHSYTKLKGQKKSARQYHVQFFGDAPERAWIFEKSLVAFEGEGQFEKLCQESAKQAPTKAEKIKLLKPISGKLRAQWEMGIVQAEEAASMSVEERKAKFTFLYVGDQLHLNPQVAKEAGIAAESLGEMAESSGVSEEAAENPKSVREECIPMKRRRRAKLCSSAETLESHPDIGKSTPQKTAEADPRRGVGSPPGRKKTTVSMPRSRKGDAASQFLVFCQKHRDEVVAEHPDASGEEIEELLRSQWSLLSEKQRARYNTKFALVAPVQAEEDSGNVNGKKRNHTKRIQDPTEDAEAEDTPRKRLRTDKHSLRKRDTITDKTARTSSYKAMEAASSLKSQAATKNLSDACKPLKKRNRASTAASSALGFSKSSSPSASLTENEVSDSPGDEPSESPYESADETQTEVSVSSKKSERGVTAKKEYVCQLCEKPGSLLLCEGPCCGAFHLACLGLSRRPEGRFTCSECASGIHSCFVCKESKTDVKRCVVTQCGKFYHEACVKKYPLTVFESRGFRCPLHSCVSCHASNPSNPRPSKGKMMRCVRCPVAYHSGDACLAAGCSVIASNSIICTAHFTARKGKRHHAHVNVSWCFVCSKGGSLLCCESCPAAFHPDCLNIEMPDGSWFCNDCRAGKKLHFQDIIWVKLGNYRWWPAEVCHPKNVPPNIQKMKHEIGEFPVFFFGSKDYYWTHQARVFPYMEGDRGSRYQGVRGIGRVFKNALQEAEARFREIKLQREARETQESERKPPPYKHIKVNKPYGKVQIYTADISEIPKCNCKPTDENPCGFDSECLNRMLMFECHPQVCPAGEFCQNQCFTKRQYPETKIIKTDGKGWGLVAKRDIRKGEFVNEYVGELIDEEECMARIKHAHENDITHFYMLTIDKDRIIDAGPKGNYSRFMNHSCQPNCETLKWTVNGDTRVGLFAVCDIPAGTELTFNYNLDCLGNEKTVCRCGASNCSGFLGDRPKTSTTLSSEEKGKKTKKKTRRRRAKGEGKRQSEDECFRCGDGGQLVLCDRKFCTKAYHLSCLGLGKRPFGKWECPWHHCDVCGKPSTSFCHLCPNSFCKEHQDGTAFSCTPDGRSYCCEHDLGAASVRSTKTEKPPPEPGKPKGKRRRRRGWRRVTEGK

[11] = molecular target: Luciferin 4-monooxygenase (Photinus pyralis, UniProt P08659); test: Counter Screen for Luciferase-based Assay Positives. [Related pubchem assays: 620, 618, 411 ]
[12] = Luminescence Cell-Based Dose Response HTS to Identify Inhibitors of 5'UTR Stem-Loop Driven Prion Protein mRNA Translation in H4 Neuroglioblastoma Cells. [Related pubchem assays: 1827 (Project Summary), 1813 (Primary HTS)]; assay type: functional
HT-1080 = test: HT1080 cell viability loss – fluorescence readout (AID 620); assay type: functional, cell-based; details: Homo sapiens
Protein skinhead-1 = molecular target: T7, Protein skinhead-1 (Caenorhabditis elegans, UniProt P34707); assay type: functional
T7 sequence (P34707 whole entry): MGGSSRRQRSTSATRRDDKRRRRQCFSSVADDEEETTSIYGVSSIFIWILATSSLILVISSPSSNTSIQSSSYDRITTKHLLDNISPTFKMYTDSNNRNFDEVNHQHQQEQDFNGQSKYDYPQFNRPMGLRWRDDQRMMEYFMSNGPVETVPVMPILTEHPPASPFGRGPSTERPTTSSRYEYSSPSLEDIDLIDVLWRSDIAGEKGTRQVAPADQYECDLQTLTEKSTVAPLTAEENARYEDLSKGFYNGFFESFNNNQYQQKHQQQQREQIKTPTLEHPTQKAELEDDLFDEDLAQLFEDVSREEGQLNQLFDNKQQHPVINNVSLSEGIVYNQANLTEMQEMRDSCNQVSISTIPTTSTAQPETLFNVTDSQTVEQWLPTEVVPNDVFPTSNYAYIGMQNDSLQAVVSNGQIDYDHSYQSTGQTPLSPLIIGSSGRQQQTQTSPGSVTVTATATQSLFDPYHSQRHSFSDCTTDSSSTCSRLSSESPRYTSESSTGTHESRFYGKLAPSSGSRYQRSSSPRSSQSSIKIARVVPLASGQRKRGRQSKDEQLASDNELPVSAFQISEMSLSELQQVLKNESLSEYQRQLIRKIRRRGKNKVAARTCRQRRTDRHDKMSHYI

[13] = blockers of HIV-1 envelope-mediated cell-cell fusion – cherry-pick, dose response (AID 652057); assay type: functional, cell-based
[14] = viability loss in CEM21 cells – cell-based, CellTiter-Glo luminescence, cherry-picked, cytotoxicity control for viral fusion inhibitor project, dose response (AID 652042); assay type: functional;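 note: potency for signal decrease meaning cytotoxicity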
[15] = HIV-1 AD8 envelope cell-cell fusion blockers – cherry-pick, dose response (AID 652062); assay type: functional, cell-based;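 note: luciferase signal from cell-cell fusion driven by HIV-1 clade B AD8 Env; potency is for inhibitors of fusion seen as a drop in luminescence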
[16] = blockers of HIV-1 ZM109 envelope-driven cell-cell fusion – HeLa effector, CEM target cells, luciferase, cherry-pick, dose response (AID 652058); assay type: functional, cell-based;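 note: luciferase signal from HIV-1 Env mediated cell-cell fusion of effector and target cells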

Chain of Mu-type opioid receptor (P35372 whole entry): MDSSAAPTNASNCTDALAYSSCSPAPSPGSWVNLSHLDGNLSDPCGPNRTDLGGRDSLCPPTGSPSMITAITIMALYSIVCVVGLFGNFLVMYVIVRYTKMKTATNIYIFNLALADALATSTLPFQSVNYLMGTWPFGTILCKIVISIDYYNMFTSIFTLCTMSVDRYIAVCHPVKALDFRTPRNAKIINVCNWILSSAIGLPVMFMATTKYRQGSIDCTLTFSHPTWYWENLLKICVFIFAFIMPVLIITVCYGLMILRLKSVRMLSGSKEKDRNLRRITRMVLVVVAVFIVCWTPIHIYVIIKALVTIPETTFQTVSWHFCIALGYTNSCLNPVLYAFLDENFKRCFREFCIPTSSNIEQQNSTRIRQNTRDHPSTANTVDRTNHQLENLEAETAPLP
Chain of 5-hydroxytryptamine receptor 2A (P35363 whole entry): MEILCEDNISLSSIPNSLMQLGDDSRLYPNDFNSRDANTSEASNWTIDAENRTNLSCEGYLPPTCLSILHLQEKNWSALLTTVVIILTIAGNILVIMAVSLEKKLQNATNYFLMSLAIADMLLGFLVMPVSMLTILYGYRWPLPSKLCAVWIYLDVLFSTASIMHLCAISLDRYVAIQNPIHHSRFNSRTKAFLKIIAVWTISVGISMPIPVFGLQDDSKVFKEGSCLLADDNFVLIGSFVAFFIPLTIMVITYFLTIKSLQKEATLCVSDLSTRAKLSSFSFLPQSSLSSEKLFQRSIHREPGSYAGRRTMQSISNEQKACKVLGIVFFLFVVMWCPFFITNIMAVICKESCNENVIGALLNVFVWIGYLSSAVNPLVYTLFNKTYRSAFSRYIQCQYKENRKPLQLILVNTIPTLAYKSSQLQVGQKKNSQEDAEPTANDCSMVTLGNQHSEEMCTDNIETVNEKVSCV
T5 sequence (P63165 whole entry): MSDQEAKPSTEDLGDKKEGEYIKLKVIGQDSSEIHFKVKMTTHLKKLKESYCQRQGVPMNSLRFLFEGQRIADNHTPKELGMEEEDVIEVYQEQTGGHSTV
Chain of DNA (cytosine-5)-methyltransferase 1 (P26358 whole entry): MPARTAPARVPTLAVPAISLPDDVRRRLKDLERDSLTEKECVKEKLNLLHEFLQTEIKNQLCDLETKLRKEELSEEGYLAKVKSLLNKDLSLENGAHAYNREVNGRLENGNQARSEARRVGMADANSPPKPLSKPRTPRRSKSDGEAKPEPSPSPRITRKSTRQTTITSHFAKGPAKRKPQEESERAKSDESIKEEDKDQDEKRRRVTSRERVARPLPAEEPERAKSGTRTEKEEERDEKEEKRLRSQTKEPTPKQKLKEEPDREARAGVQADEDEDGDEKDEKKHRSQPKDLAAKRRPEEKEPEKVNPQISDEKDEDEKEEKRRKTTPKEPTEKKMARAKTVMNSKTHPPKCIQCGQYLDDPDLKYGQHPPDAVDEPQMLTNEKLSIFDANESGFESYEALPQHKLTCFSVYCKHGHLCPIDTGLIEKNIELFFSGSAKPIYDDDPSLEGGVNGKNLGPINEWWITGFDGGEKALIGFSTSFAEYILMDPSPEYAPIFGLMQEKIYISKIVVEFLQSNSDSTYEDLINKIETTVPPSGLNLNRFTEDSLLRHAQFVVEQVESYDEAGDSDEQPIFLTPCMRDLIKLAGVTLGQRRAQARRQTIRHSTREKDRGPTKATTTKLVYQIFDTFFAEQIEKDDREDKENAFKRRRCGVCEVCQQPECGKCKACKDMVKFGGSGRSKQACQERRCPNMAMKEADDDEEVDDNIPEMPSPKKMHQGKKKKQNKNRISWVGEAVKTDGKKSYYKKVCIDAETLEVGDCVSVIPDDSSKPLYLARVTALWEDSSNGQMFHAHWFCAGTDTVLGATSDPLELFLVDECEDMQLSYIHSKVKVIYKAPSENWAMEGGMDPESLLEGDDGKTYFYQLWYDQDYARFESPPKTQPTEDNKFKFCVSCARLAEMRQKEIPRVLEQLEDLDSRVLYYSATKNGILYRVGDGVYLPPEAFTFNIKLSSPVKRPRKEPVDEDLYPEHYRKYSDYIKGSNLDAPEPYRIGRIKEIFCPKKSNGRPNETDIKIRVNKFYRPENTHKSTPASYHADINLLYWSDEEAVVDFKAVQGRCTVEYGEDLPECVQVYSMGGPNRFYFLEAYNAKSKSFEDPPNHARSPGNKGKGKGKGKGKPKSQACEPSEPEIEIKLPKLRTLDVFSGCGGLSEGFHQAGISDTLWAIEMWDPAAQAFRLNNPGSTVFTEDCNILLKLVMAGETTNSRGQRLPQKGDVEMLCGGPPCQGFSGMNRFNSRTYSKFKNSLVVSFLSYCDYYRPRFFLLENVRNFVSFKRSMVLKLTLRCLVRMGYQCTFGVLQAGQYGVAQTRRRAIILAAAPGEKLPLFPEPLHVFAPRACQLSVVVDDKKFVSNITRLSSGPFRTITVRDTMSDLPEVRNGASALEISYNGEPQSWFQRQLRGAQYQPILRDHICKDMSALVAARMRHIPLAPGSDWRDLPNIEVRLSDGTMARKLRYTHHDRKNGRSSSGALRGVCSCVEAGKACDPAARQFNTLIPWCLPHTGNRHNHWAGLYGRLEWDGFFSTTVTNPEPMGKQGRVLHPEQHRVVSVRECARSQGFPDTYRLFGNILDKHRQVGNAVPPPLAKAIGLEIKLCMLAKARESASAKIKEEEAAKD
Chain of Luciferin 4-monooxygenase (P08659 whole entry): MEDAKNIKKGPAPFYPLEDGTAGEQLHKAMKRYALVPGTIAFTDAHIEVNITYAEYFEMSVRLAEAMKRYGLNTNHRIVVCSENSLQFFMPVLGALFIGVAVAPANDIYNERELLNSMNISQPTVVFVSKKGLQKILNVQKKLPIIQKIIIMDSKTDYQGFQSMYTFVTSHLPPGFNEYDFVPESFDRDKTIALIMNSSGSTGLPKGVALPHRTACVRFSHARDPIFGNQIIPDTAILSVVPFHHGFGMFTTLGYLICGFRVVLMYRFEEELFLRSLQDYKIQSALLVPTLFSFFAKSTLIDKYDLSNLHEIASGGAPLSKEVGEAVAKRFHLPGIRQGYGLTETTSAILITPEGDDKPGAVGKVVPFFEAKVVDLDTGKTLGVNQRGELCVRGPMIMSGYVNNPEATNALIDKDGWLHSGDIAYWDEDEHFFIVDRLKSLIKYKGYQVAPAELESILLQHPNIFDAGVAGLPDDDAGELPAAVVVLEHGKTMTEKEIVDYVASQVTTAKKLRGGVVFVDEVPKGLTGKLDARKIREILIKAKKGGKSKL
Chain of Induced myeloid leukemia cell differentiation protein Mcl-1 (Q07820 whole entry): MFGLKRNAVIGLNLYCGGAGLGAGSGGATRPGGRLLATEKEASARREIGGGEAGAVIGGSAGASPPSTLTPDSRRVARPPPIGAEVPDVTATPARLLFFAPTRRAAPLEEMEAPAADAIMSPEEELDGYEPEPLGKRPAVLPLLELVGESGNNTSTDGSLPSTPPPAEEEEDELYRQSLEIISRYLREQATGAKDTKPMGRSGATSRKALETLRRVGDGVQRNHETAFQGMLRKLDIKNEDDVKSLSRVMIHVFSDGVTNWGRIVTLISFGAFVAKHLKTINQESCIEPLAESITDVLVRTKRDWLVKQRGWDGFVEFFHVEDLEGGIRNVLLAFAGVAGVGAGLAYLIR
Chain of Large T antigen (P03070 whole entry): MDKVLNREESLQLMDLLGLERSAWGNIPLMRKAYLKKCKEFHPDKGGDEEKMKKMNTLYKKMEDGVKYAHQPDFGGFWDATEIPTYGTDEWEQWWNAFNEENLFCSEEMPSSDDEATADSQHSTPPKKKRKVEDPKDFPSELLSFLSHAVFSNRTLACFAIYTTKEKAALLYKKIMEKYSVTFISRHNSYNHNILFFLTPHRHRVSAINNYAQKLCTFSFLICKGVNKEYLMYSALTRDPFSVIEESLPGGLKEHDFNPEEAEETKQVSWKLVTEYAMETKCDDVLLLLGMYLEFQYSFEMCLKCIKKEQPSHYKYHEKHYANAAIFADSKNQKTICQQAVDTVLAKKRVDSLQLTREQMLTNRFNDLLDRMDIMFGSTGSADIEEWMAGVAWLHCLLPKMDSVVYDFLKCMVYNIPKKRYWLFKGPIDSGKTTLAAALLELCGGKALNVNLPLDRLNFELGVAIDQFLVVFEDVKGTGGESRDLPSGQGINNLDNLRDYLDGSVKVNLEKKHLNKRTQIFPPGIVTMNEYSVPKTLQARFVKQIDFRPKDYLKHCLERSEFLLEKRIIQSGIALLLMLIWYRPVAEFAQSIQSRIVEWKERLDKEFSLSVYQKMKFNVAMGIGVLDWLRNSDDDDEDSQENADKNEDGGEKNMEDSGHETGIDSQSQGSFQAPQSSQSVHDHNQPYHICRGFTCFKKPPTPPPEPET

## CCOC(=O)N1CCN(Cc2ccc(OCC(O)CN3CCCCC3)cc2)CC1 (centres undefined)
Mu-type opioid receptor
  EC50: 92.5 µM (inactive)
[1]
  EC50: 2.22 µM (active)

## c1cnc(N2CCN(Cc3ccc4c(c3)OCO4)CC2)nc1
Mu-type opioid receptor
  EC50: 92.5 µM (inactive)
[1]
  EC50: 0.00986 µM (active)

## CCc1cccc2c(C(=O)CN3C(=O)NC4(CCc5ccccc54)C3=O)c[nH]c12 (centres undefined)
[2]
  AC50: 29.2 µM (active)
cells
  IC50: > 67.5 µM (inactive)
[3]
  IC50: > 67.5 µM (inactive)

## O=C(COC(=O)c1ccc(O)cc1O)c1ccc(Cl)cc1
cells
  IC50: > 67.5 µM (inactive)
[3]
  IC50: > 67.5 µM (inactive)

## O=C(O)c1ccc(-n2cccc2/C=C2/NC(=O)N(c3ccccc3)C2=O)cc1
[4]
  EC50: > 300 µM (not active)
[5]
  EC50: 71.1 µM (active)
Large T antigen
  IC50: > 100 µM (active)
[6]
  IC50: 3.51 µM (active)
[7]
  IC50: 3.83 µM (active)
[8]
  IC50: > 66.6 µM (inactive)
[9]
  IC50: 9.62 µM (active)
[10]
  AC50: 5.87 µM (active)

## O=C(/C=C\Nc1ccccn1)c1ccccc1
[11]
  EC50: < 0.2 µM (active)
[12]
  EC50: 10.7 µM (inconclusive)
HT-1080
  EC50: > 50 µM (not active)
Protein skinhead-1
  IC50: 15.1 µM (active)
cells
  IC50: > 67.5 µM (inactive)
[3]
  IC50: > 67.5 µM (inactive)

## CC[C@@H](C)[C@H](C(CC(=O)N1CCCC1[C@@H](OC)[C@H](C)C(=O)N[C@H](Cc1ccccc1)c1nccs1)OC)N(C)C(=O)[C@H](NC(=O)[C@@H](C(C)C)N(C)C)C(C)C (some centres undefined)
cells
  IC50: > 67.5 µM (inactive)
[3]
  IC50: > 67.5 µM (inactive)

## CSCCC(=O)N1CC[C@@H](N2CCN(c3ccccc3F)CC2)[C@H](O)C1
Mu-type opioid receptor
  EC50: 92.5 µM (inactive)
[1]
  EC50: 41.7 µM (inactive)

## COc1cccc(CNc2nc(NCc3ccccc3OC)nc3ccsc23)c1
Protein skinhead-1
  IC50: > 100 µM (inactive)
[13]
  AC50: 31.9 µM (active)
[14]
  AC50: 68.5 µM (active)
[15]
  AC50: 16.8 µM (active)

## O=C(Nc1ccc(Cl)c(Cl)c1)N[C@H]1CC[C@H](CCn2cc(C3CCCCC3)nn2)O[C@@H]1CO
[13]
  AC50: 18.9 µM (active)
[14]
  AC50: 61 µM (active)
[16]
  AC50: 16.8 µM (active)
[15]
  AC50: 43.9 µM (active)

## CCC1CS/C(=N\c2ccc(C)cc2)N1C(=O)CN1C(=O)NC2(CCCC2)C1=O (centres undefined)
cells
  IC50: > 67.6 µM (inactive)
[3]
  IC50: > 67.6 µM (inactive)

## CC(=O)NCC1(c2ccccc2)CCN(CC2COc3ccccc3O2)CC1 (centres undefined) [ACOXATRINE]
Mu-type opioid receptor
  EC50: 92.6 µM (inactive)
[1]
  EC50: 76.2 µM (inactive)
